Laboratory results reported in article PMC6774960, “Design, synthesis and biological evaluation of a series of new resveratrol analogues as potential anti-cancer agents” (Royal Society Open Science, 2019).

Assays:
[1] = tested on: normal human hepatocytes LO2 cells; assay: MTT cytotoxicity test, LO2; format: cell-based; details: 24 h, average of three determinations
Protocol: (§1) Vero cells are non-tumorigenic cell lines and are important raw materials as the research and production of biological products. Vero cells show low tumorigenicity and had been approved for use in the production of human virus vaccines. Thus, Vero cells were chosen as a control for cytotoxicity. All compounds were evaluated for their cell toxicity against Vero and normal human hepatocytes cells line (LO2) using MTT assays.
(§2) The anti-proliferative and cytotoxicity activity was determined using MTT assay. Human cervical carcinoma HeLa cells, human hepatocellular carcinoma HepG2 cells, human lung carcinoma A549 cells were representative in the anti-proliferation assay, which were obtained from the Shanghai Institute of Cell Biology (Shanghai, China). Normal African green monkey kidney Vero cells were a gift from Dr Xiumiao He at Guangxi University for Nationalities. Normal human hepatocytes LO2 cells were a gift from Dr Xing Lin at Guangxi Medical University. The HepG2, Hela, LO2 and Vero cells were cultured in Dulbecco's modified Eagle's medium (DMEM, Gibco) and the A549 cells were cultured in RPMI1640 (Gibco), both media were supplemented with 10% fetal calf serum and antibiotics (100 IU ml^−1 penicillin, 100 IU ml^−1 streptomycin; Amresco).
(§3) Cells were seeded in 96-well microtiter plates at a density of 1 × 10^4 cells well^−1 and incubated with different concentrations of compound (6.25, 12.50, 25.00, 50.00 to 100.00 µM), cisplatin and paclitaxel in RPMI-1640 or DMEM at 37°C with 5% CO2. After 24 h, cell morphology was observed using a light microscope, and then 20 µl of MTT solution (5 mg ml^−1) was added to the well and incubated for 4 h, then cell survival was determined by measuring the optical density (OD) absorbance at a wavelength of 570 nm using an ELISA microplate reader. The inhibition rate (IR) following each compound treatment was determined by the following equation: IR (%) = (1 − ODexp/ODcon) × 100%, where ODexp and ODcon are the OD of the treated and untreated cells, respectively. Cisplatin and paclitaxel were used as positive control drugs.

HeLa cells = assay: MTT anti-proliferation assay, HeLa; format: cell-based, human; details: 24 h, average of three determinations
Protocol: (§4) The 22 synthesized resveratrol compounds were evaluated for anti-proliferative activities against three human cancer cell lines, including HepG2, A549 and HeLa cells, using 3-[4,5-dimethylthiazol-2-yl]-2,5 diphenyl tetrazolium bromide (MTT) assays. Paclitaxel, a well-known tubulin inhibitor, was used as a positive control.
as §2
After 24 h, cell morphology was observed using a light microscope, and then 20 µl of MTT solution (5 mg ml^−1) was added to the well and incubated for 4 h, then cell survival was determined by measuring the optical density (OD) absorbance at a wavelength of 570 nm using an ELISA microplate reader. […] Cisplatin and paclitaxel were used as positive control drugs.

Vero cells = assay: MTT cytotoxicity test, Vero; format: cell-based, African green monkey; details: 24 h, average of three determinations
Protocol: as §1, §2, §3

A549 cells = assay: MTT anti-proliferation assay, A549; format: cell-based, human; details: 24 h, average of three determinations
Protocol: as §4, with “control. […] Therefore, the inhibitory activity of the compounds depended not only on the 2-position substitution of acrylic acid, but also on the 3-position substitution of acrylic acid.” for “control.”
as §2, §3

HepG2 cells [2] = assay: MTT anti-proliferation assay, HepG2; format: cell-based, human; details: 24 h, average of three determinations
Protocol: as §4, with “control. […] Therefore, the inhibitory activity of the compounds depended not only on the 2-position substitution of acrylic acid, but also on the 3-position substitution of acrylic acid.” for “control.”
as §2, §3

HepG2 cells [3] = assay: Cell cycle assay by flow cytometry; format: cell-based, human; details: HepG2, 20 µM, 24 h
Protocol: To evaluate the effects of compound r on cell cycle progression of HepG2, cells were treated with compound r at different concentrations (0, 5, 15 and 45 µM) for 24 h and then examined by flow cytometry. The accumulation of cells in S phase increased with increasing concentration of compound r. Approximately 18.36 ± 1.93%, 19.39 ± 2.06%, 29.9 ± 0.87% and 34.24 ± 1.00% of cells were arrested in S phase in response to 0, 5, 15 and 45 µM compound r, respectively. In comparison, 39.56 ± 0.97% cells were arrested in S phase after treatment with 20 µM cisplatin for 24 h.
Figure 5. Cells treated with 0, 5, 15 and 45 µM compound r for 24 h were collected and analysed by flow cytometry. Images were representative of three independent experiments. Values represented the mean ± s.d.; versus blank, *p < 0.01, **p < 0.001; versus control ^#p < 0.01, ^##p < 0.001.
Cells were treated with compound r (0, 5, 15, 45 µM) or 20 µM of cisplatin as the control for 24 h. Cells were collected by centrifugation (1000 rpm, 5 min), washed with PBS and fixed with 70% ice-cold ethanol overnight at 4°C. The cell cycle was examined on a flow cytometer using a cell cycle analysis kit (Beyotime Biotechnologyin, China) in accordance with the manufacturer's instructions.

HepG2 cells [4] = assay: Morphologic observation by light microscope; format: cell-based, human; details: HepG2, cisplatin 20 µM, 24 h
Protocol: Morphological observations can directly reflect the effects of drugs on cells. HepG2 cells were cultured with increasing concentrations of compound r (0, 5, 15 and 45 µM) for 24 h and observed using a light microscope. The cell morphology was clearly altered with the increase in drug concentration (figure 2).
Figure 2. Effect of compound r on the microscopic examination of HepG2 cells. Morphology of HepG2 treated with compound r (0, 5, 15 and 45 µM) and cisplatin (20 µM) for 24 h. Light microscopy photographs, with 40× objective.
as §3

Row | Compound | CC50 [1] [µM] | IC50 (HeLa cells) [µM] | CC50 (Vero cells) [µM] | IC50 (A549 cells) [µM] | IC50 (HepG2 cells [2]) [µM] | cells arrested in S phase (HepG2 cells [3]) [%] | cell morphology (HepG2 cells [4])
1 | 3-(4-hydroxy-3-methoxy-5-nitrophenyl)-2-(4-methoxyphenyl) acrylic acid [compound s] | 83 ± 2 | 39 ± 2 | > 100 | 15 ± 4 | 42 ± 4 | – | –
2 | N.N.[Cl][Pt][Cl] [cisplatin, reference compound] | – | – | – | – | – | 39.56 ± 0.97 | rounded shape
